The source of these data is the supplement of paper PMC10702517.

A short description of data set [1]: chemical recovery by SPE of plasma after PDMS sampling; higher = better extraction. The note with it: pooled human plasma, extraction method: HLB SPE of plasma after PES.
Data set [2] in a line: chemical recovery into PDMS from spiked human plasma; higher = better extraction. The note with it: pooled human plasma, extraction method: PES with PDMS.
Data set [3] in a line: chemical recovery from spiked human plasma; higher = better extraction. To be noted: pooled human plasma.
Setting [4] is: extraction method: SPE only (HLB 96-well).
Where [5] appears, read: extraction method: SPE only (HLB 96-well), PES comparison experiment.
Setting [6] is: extraction method: solvent precipitation (ACN + hexane).
Setting [7] is: extraction method: PES+SPE (3 d PDMS equilibration then HLB SPE).

± gives the standard deviation.
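For chemical recovery by SPE of plasma after PDMS sampling in this document: over 400 spiked chemicals quantified by LC-HRMS or GC-HRMS via internal standard calibration, recovery relative to spike mix added to unspiked plasma extract to correct matrix effects.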

`O=C1Nc2ccc(Cl)cc2C(C#CC2CC2)(C(F)(F)F)O1` (stereo not given) [Efavirenz]: the “chemical recovery by SPE of plasma” value in data set [1] (equilibration time (d): 1) worked out at 4.94 ± 4.3%; in data set [1] (equilibration time (d): 3) it was 6.96 ± 1.3%; in data set [1] (equilibration time (d): 6) it was 1.44 ± 2.5%. For the same compound, the “chemical recovery into PDMS” value in data set [2] (equilibration time (d): 1) stood at 44.7 ± 4.4%; in data set [2] (equilibration time (d): 3), 46.6 ± 4.5%; in data set [2] (equilibration time (d): 6), 47.4 ± 0.83%. Also, the chemical recovery in data set [3] (setting [4]) was 27.1 ± 5.3%; in data set [3] (setting [5]) it was 38.7 ± 7.3%; in data set [3] (setting [6]), 41.4 ± 3.2%.

`CC[C@H](C)[C@H]1O[C@]2(C=C[C@@H]1C)C[C@@H]1C[C@@H](C/C=C(\C)[C@@H](O[C@H]3C[C@H](OC)[C@@H](O[C@H]4C[C@H](OC)[C@@H](NC)[C@H](C)O4)[C@H](C)O3)[C@@H](C)/C=C/C=C3\CO[C@@H]4[C@H](O)C(C)=C[C@@H](C(=O)O1)[C@]34O)O2` [Emamectin B1a]: the “chemical recovery by SPE of plasma” value in data set [1] (equilibration time (d): 1) was determined as 9.54 ± 2.3%; in data set [1] (equilibration time (d): 3) it was 9.04 ± 3%; in data set [1] (equilibration time (d): 6), 8.2 ± 4.6%. The figures for the “chemical recovery into PDMS” value in data set [2] (equilibration time (d): 1), in data set [2] (equilibration time (d): 3) and in data set [2] (equilibration time (d): 6) were 0.154 ± 0.044%, 0.139 ± 0.047% and 0.0633 ± 0.056%, respectively. The chemical recovery amounted to 29.7 ± 9.1% in data set [3] (setting [5]) and 69 ± 6.4% in data set [3] (setting [6]).

Consider `CCOC1Oc2ccc(OS(C)(=O)=O)cc2C1(C)C` (stereo not given) [Ethofumesate], for which the figures for the “chemical recovery by SPE of plasma” value in data set [1] (equilibration time (d): 1), in data set [1] (equilibration time (d): 3) and in data set [1] (equilibration time (d): 6) were 0.62 ± 1.1%, 1.94 ± 1.7% and 0.896 ± 1.6%, respectively. The “chemical recovery into PDMS” value turned out to be 40.5 ± 3.4% in data set [2] (equilibration time (d): 1), 42.3 ± 2.6% in data set [2] (equilibration time (d): 3) and 44 ± 0.63% in data set [2] (equilibration time (d): 6). Also, the chemical recovery in data set [3] (setting [7]) was determined as 43.9 ± 5.2%; in data set [3] (setting [4]) it was 48.8 ± 1.2%; in data set [3] (setting [5]) it was 52.8 ± 9.5%.

For `CCOC(=O)c1ccc(N(C)C)cc1` [Ethyl 4-(dimethylamino)benzoate], the figures for the “chemical recovery by SPE of plasma” value in data set [1] (equilibration time (d): 1), in data set [1] (equilibration time (d): 3) and in data set [1] (equilibration time (d): 6) were 1.27 ± 0.14%, 1.79 ± 0.23% and 1.11 ± 0.13%, respectively. Moreover, the “chemical recovery into PDMS” value in data set [2] (equilibration time (d): 1) was 26 ± 6%; in data set [2] (equilibration time (d): 3), 27.7 ± 4.9%; in data set [2] (equilibration time (d): 6), 29.8 ± 3.4%. Besides, the chemical recovery is 25.6 ± 9.8% in data set [3] (setting [7]), 38.6 ± 1.8% in data set [3] (setting [4]), 37.5 ± 6.9% in data set [3] (setting [5]) and 60.4 ± 5.1% in data set [3] (setting [6]).

With `CCOP(=S)(OCC)SCn1nnc2ccccc2c1=O` [Ethyl azinphos], the entries for the “chemical recovery by SPE of plasma” value in data set [1] (equilibration time (d): 1), in data set [1] (equilibration time (d): 3) and in data set [1] (equilibration time (d): 6) were 2.46 ± 0.6%, 2.42 ± 0.18% and 1.19 ± 0.21%, respectively. Besides, the “chemical recovery into PDMS” value in data set [2] (equilibration time (d): 1) was determined as 39.8 ± 4.6%; in data set [2] (equilibration time (d): 3), 41.4 ± 0.64%; in data set [2] (equilibration time (d): 6), 42.5 ± 2.1%. In addition, the values for the chemical recovery in data set [3] (setting [5]) and in data set [3] (setting [6]) were 46.3 ± 6% and 69.5 ± 2.2%, respectively.

For `S=C1NCCN1` [Ethylenethiourea], the “chemical recovery by SPE of plasma” value worked out at 0.0882 ± 0.15% in data set [1] (equilibration time (d): 3) and 0.15 ± 0.26% in data set [1] (equilibration time (d): 6). Besides, the “chemical recovery into PDMS” value in data set [2] (equilibration time (d): 6) came out at 0.013 ± 0.022%. Also, the figures for the chemical recovery in data set [3] (setting [7]) and in data set [3] (setting [4]) were 0.046 ± 0.019% and 0.261 ± 0.34%, respectively.

`CC(Cc1ccc(C(C)(C)C)cc1)CN1CCCCC1` (stereo not given) [Fenpropidin]: the “chemical recovery by SPE of plasma” value in data set [1] (equilibration time (d): 1) stood at 0.126 ± 0.086%; in data set [1] (equilibration time (d): 3), 0.0736 ± 0.023%; in data set [1] (equilibration time (d): 6), 0.0409 ± 0.011%. Further, the “chemical recovery into PDMS” value in data set [2] (equilibration time (d): 3) was determined as 0.0302 ± 0.026%. The chemical recovery turned out to be 44.5 ± 7.7% in data set [3] (setting [5]) and 105 ± 9.7% in data set [3] (setting [6]).

For the compound `CC(Cc1ccc(C(C)(C)C)cc1)CN1C[C@@H](C)O[C@@H](C)C1` (stereo not given in full) [Fenpropimorph], the entries for the “chemical recovery by SPE of plasma” value in data set [1] (equilibration time (d): 1), in data set [1] (equilibration time (d): 3) and in data set [1] (equilibration time (d): 6) were 0.124 ± 0.08%, 0.066 ± 0.064% and 0.0142 ± 0.017%, respectively. The “chemical recovery into PDMS” value turned out to be 0.0443 ± 0.064% in data set [2] (equilibration time (d): 1), 0.0146 ± 0.013% in data set [2] (equilibration time (d): 3) and 0.0427 ± 0.056% in data set [2] (equilibration time (d): 6). In addition, the chemical recovery in data set [3] (setting [5]) was found to be 43.4 ± 8%; in data set [3] (setting [6]) it was 80.2 ± 11%.

Consider `CC(C)(C)NC(=O)[C@H]1CC[C@H]2[C@@H]3CC[C@H]4NC(=O)C=C[C@]4(C)[C@H]3CC[C@]12C` [Finasteride], for which the “chemical recovery by SPE of plasma” value worked out at 9.28 ± 1.5% in data set [1] (equilibration time (d): 1), 5.81 ± 1.2% in data set [1] (equilibration time (d): 3) and 3.05 ± 0.42% in data set [1] (equilibration time (d): 6). Besides, the results for the “chemical recovery into PDMS” value in data set [2] (equilibration time (d): 1), in data set [2] (equilibration time (d): 3) and in data set [2] (equilibration time (d): 6) were 32.6 ± 3%, 37.9 ± 1.4% and 38.5 ± 0.91%, respectively. The compound also registered a chemical recovery in data set [3] (setting [5]) of 47.9 ± 6.3%.
